As a reminder, the EC50 is the concentration needed to bring the measured effect to its halfway point.

EC50 data for ten compounds are collected here from US12655125B2 (SIRONAX LTD., priority 2020, dated 2026).

Each structure is given as a SMILES string.

The subject of this test is HT-29 cells. Put plainly: HT29 Cells 0FBS Assay In Vitro (TNF-α/SMAC mimetic/zVAD-FMK induced necroptosis, CellTiter-Glo cell viability). In kind it is cell-based. The settings on record: Homo sapiens; HT-29 cells, FBS free medium, TNF-α (10 ng/ml), SMAC mimetic (6 uM), zVAD-FMK (10 μM), 20 hours; geometric mean EC50; read-out: Cell activity (EC50) of Compounds 117-281. Put shortly: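 HT-29 cells (5,000/well, seeded overnight) in serum-free McCoy's 5A were stimulated with TNF-α 10 ng/ml, SMAC mimetic 6 μM and zVAD-FMK 10 μM to induce necroptosis. Compound added as 10-point 3-fold series for 20 h at 37° C. CellTiter-Glo luminescence gives viability; EC50 is geometric mean of duplicate dose-responses.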
Take `Cc1nn(-c2cc(OC3CN(C(=O)N4N=CC[C@H]4c4cc(F)cc(F)c4)C3)c(F)cn2)c(C)c1S(=O)(=O)NCCO` [compound 244, (S)-1-(4-((1-(5-(3,5-difluorophenyl)-4,5-dihydro-1H-pyrazole-1-carbonyl)azetidin-3-yl)oxy)-5-fluoropyridin-2-yl)-N-(2-hydroxyethyl)-3,5-dimethyl-1H-pyrazole-4-sulfonamide]: the EC50 lay in the range of 0.1 to 100 nM. Turning to `Cc1c(-c2cc(OC3CN(C(=O)N4N=CC[C@H]4c4cc(F)cc(F)c4)C3)c(F)cn2)nn(C)c1C(=O)O` [compound 245, (S)-3-(4-((1-(5-(3,5-difluorophenyl)-4,5-dihydro-1H-pyrazole-1-carbonyl)azetidin-3-yl)oxy)-5-fluoropyridin-2-yl)-1,4-dimethyl-1H-pyrazole-5-carboxylic acid], the EC50 was in the range of 0.1 to 100 nM. For the compound `CNC(=O)c1c(C)c(-c2cc(OC3CN(C(=O)N4N=CC[C@H]4c4cc(F)cc(F)c4)C3)c(F)cn2)nn1C` [compound 246, (S)-3-(4-((1-(5-(3,5-difluorophenyl)-4,5-dihydro-1H-pyrazole-1-carbonyl)azetidin-3-yl)oxy)-5-fluoropyridin-2-yl)-N,1,4-trimethyl-1H-pyrazole-5-carboxamide], the EC50 was 0.1 to 100 nM. `Cc1c(-c2cc(OC3CN(C(=O)N4N=CC[C@H]4c4cc(F)cc(F)c4)C3)c(F)cn2)nn(C)c1C(=O)NC1CCOCC1` [compound 247, (S)-3-(4-((1-(5-(3,5-difluorophenyl)-4,5-dihydro-1H-pyrazole-1-carbonyl)azetidin-3-yl)oxy)-5-fluoropyridin-2-yl)-1,4-dimethyl-N-(tetrahydro-2H-pyran-4-yl)-1H-pyrazole-5-carboxamide]: the half-maximal effective concentration (EC50) was 0.1 to 100 nM. Consider `CONS(=O)(=O)c1c(C)nn(-c2cc(OC3CN(C(=O)N4N=CC[C@H]4c4cc(F)cc(F)c4)C3)c(F)cn2)c1C` [compound 248, (S)-1-(4-((1-(5-(3,5-difluorophenyl)-4,5-dihydro-1H-pyrazole-1-carbonyl)azetidin-3-yl)oxy)-5-fluoropyridin-2-yl)-N-methoxy-3,5-dimethyl-1H-pyrazole-4-sulfonamide], for which the EC50 is 0.1 to 100 nM.

On to `Cc1nn(-c2cc(OC3CN(C(=O)N4N=CC[C@H]4c4cc(F)cc(F)c4)C3)c(F)cn2)c(C)c1C(=O)NC1CCC1` [compound 249, (S)—N-cyclobutyl-1-(4-((1-(5-(3,5-difluorophenyl)-4,5-dihydro-1H-pyrazole-1-carbonyl)azetidin-3-yl)oxy)-5-fluoropyridin-2-yl)-3,5-dimethyl-1H-pyrazole-4-carboxamide], for which the EC50 fell in the range of 0.1 to 100 nM. For `Cn1nccc1-c1cc(OC2CN(C(=O)N3N=CCC3c3cc(F)cc(F)c3)C2)c(F)cn1` (stereo not shown) [compound 250, (5-(3,5-difluorophenyl)-4,5-dihydro-1H-pyrazol-1-yl)(3-((5-fluoro-2-(1-methyl-1H-pyrazol-5-yl)pyridin-4-yl)oxy)azetidin-1-yl)methanone], the concentration for a half-maximal effect (EC50) lay within 0.1 to 100 nM. Regarding `Cc1nn(-c2cc(OC3CN(C(=O)N4N=CC[C@H]4c4cc(F)cc(F)c4)C3)c(F)cn2)c(C)c1C` [compound 251, (S)-(5-(3,5-difluorophenyl)-4,5-dihydro-1H-pyrazol-1-yl)(3-((5-fluoro-2-(3,4,5-trimethyl-1H-pyrazol-1-yl)pyridin-4-yl)oxy)azetidin-1-yl)methanone], the EC50 was 0.1 to 100 nM. In the case of `Cc1nn(-c2cc(OC3CN(C(=O)N4N=CC[C@H]4c4cc(F)cc(F)c4)C3)c(F)cn2)c(C)c1C(=O)NO` [compound 252, (S)-1-(4-((1-(5-(3,5-difluorophenyl)-4,5-dihydro-1H-pyrazole-1-carbonyl)azetidin-3-yl)oxy)-5-fluoropyridin-2-yl)-N-hydroxy-3,5-dimethyl-1H-pyrazole-4-carboxamide], the EC50 was 0.1 to 100 nM.

Regarding `Cc1nn(-c2cc(OC3CN(C(=O)N4N=CC[C@H]4c4cc(F)cc(F)c4)C3)c(F)cn2)c(C)c1C(=O)NC#N` [compound 253, (S)—N-cyano-1-(4-((1-(5-(3,5-difluorophenyl)-4,5-dihydro-1H-pyrazole-1-carbonyl)azetidin-3-yl)oxy)-5-fluoropyridin-2-yl)-3,5-dimethyl-1H-pyrazole-4-carboxamide], the EC50 was in the range of 0.1 to 100 nM.
